Results: patent US9962452B2, “Soluble complexes of drug analogs and albumin” (Zhuhai Beihai Biotech Co., Ltd., priority 2013, dated 2018)

biological target: Human serum albumin (HSA) (Homo sapiens, UniProt P02768); assay: HSA-Binding Assay (equilibrium dialysis, LC-MS/MS); settings: isolated protein
Description: Equilibrium dialysis was performed in a 24-well BD Gentest Serum Binding System (BD Biosciences, Woburn, Mass.). Human serum albumin (HSA) at 0.6 mM was prepared by dissolving in phosphate buffered saline (PBS: 4.01 mL 1 M K2HPO4+0.99 mL 1 M KH2PO4+1.37 mL 5 M NaCl+43.63 mL water). After washing and soaking the 24-well BD Gentest Serum Binding System with water, 30% ethanol, and PBS, 750 μL of HSA and 250 μL of PBS were dispensed into each donor and receiver well, respectively. 3.75 μL of 1 mM test compound or wafarin (as control) was spiked into HSA in each donor well. The duplicate incubations were performed at 37° C. for 20 hrs.
After incubation, HSA and buffer samples collected from donor and receiver wells, together with calibration standard samples, were prepared in 96-well plates as shown in Table 2.
The plates were then capped, vortexed, and centrifuged at 3500 rpm for 10 minutes. The supernatant was injected into LC-MS/MS. Sample analysis was performed on an LC/MS/MS system composed of Shimadzu Prominence pumps, SIL-20ACHT autosampler, and Applied Biosystems/MDS Sciex API 3200.

| SMILES | fraction unbound at 20 h, 5 μM |
| --- | --- |
| CCCCCCC(NC(=O)CCC(=O)Oc1ccc2nc3c(c(CC)c2c1)Cn1c-3cc2c(c1=O)COC(=O)[C@@]2(CC)OC(=O)CCC(=O)NC(CCCCCC)C(=O)O)C(=O)O (stereo partly drawn) [FL-037] | < 0.023 |
| CCc1c2c(nc3ccc(OC(=O)CCC(=O)N[C@@H](CC(C)C)C(=O)O)cc13)-c1cc3c(c(=O)n1C2)COC(=O)[C@@]3(CC)OC(=O)CCC(=O)N[C@@H](CC(C)C)C(=O)O [FL-041] | < 0.022 |
| CCCCCCCCCCCCCCCCC(NC(=O)CCC(=O)O[C@]1(CC)C(=O)OCc2c1cc1n(c2=O)Cc2c-1nc1ccc(O)cc1c2CC)C(=O)O (stereo partly drawn) [FL-003] | < 0.001 |
| CCCCC(NC(=O)CCC(=O)Oc1ccc2nc3c(c(CC)c2c1)Cn1c-3cc2c(c1=O)COC(=O)[C@@]2(CC)OC(=O)CCC(=O)NC(CCCC)C(=O)O)C(=O)O (stereo partly drawn) [FL-038] | < 0.168 |
| CCCCC(NC(=O)CCC(=O)O[C@]1(CC)C(=O)OCc2c1cc1n(c2=O)Cc2c-1nc1ccc(O)cc1c2CC)C(=O)O (stereo partly drawn) [FL-040] | 0.016 |
| CCc1c2c(nc3ccc(O)cc13)-c1cc3c(c(=O)n1C2)COC(=O)[C@@]3(CC)OC(=O)CCC(=O)N[C@@H](CC(C)C)C(=O)O [FL-043] | 0.03 |
